In US5804603A, “Synthesized β-adrenergic blockers derivatives of guaiacol” (National Science Council, priority 1995, dated 1998):
pEC50: −log10 of the molar value. Read-outs that look alike come from different tables or passages of the source.

What was measured:
[1] = tested on: right eye of male Wistar rats; assay: Eye wiping test (pain-producing potency); assay type: in vivo; settings: for pain producing potency: eye drops 10^-4 to 10^-2 M, 30 min, FIG. 1
Experimental: The wiping test was performed as described by Szolcsanyiand, Jancso-Gabor. Briefly, the solution or suspension of the test compound and its analogs was made up in 10% ethanol, 5% Tween 80 and then diluted with saline to the required concentrations. Each solution or suspension of 10^-4 M, 10^-3 M, 10^-2 M was dropped into the right eye (vehicle being administered to the left eye as negative control) of male Wistar rats weighing 180-250 g and the total number of protective movements (scratching, wiping of the eye with the foreleg) was counted for 30 minutes. Each test was carried out with a total of 6 rats, and a dose-response curve was obtained from the mean value of each group.

[2] = target: β-receptor (Cavia porcellus, UniProt H0W3H1); assay: Receptor binding assay, [3H]-dihydroalprenolol, heart ventricle membranes; settings: for IC50: FIG. 15 and Table 4
Experimental: Method of receptor binding assay. After punching the heads of guinea pigs, the blood was drained and the heart ventricle immediately removed. The ventricles were placed in 10 vols. of ice-cold buffer (250 mM sucrose, 1 mM Magnesium Chloride, 50 mM Tris-HCl, pH 7.5) and all subsequent procedures were carried out at 4° C. The ventricles were homogenized using a homogenizer 3-4 times. The period of each homogenization took 15 seconds. […] The supernatant was further centrifuged at 10,000 g and the final pellet was resuspended in a small volume of 75 mM Tris buffer containing 25 mM Magnesium Chloride. The membrane protein content was determined by a protein assay dye. The receptor binding assay was initiated by incubating 100 μl of, a membrane protein solution with 50 μl of [^3 H]-dihydroalprenolol(^3 H-DHA) and the competing drugs. Additional buffer was added to increase the reaction volume up to 250 μl. The binding reaction was activated at 25° C. water by constantly shaking for 60 minutes. The binding reaction was stopped by diluting it with 1 ml of ice-cold assay buffer. The solution was then filtered on a Whatman GF/C glass fiber filter paper under vacuum suction. The filters were washed 3 times with ice-cold assay buffer and dried at 60±C. in an oven for 2 hrs. Then 4 ml of scintillation fluid was added and the radioactivity was counted on β-counter.

[3] = Water solubility; assay type: physicochemical
[4] = in vivo; settings: mouse, mice, read-out: LD50 (95% C.L.)
[5] = tested on: platelet aggregation induced by collagen; assay: Collagen-induced platelet aggregation in platelet rich plasma; assay type: cell-based; settings: 10 μg/ml collagen, PRP
Experimental: A monophasic aggregation curve was observed when 10 μg/ml of collagen was added to platelet rich plasma (PRP).

[6] = tested on: acetic acid-induced writhing syndrome; assay: Acetic acid-induced writhing (antinociceptive test); assay type: in vivo, male mice (ddk strain)
Experimental: Following the method described by Koster antinociceptive tests were carried out in male mice after intraperitoneal administration of test solution. […] The test solution was administered by intraperitoneal injection of a single dose 0.2 ml (vehicle administered as control). Twenty minutes after injection, 0.2 ml of 0.7% acetic acid was injected intraperitoneally to induce writhing.

[7] = tested on: β1 adrenergic receptor; assay: Antagonism of isoproterenolol on isolated guinea pig right atrium; assay type: cell-based
Source text: (§1) A bath as described in Gen.
(§2) The determination of the pA2 is made from experiments in which a fixed concentration of the antagonist is used along with graded concentrations of an agonist acting on the same receptor. The presence of the antagonist shifts the agonist dose-response curve to the right.

[8] = target: T1, β1 adrenergic receptor (Cavia porcellus, UniProt H0W3H1); assay: as above; assay type: cell-based
T1 construct: isolated guinea pig right atrium; from tissue; host or cells: guinea pig right atrium (isolated organ)
Source text: as §1, §2

[9] = tested on: heart rate and blood pressure; assay: Heart rate and blood pressure of anesthetized rats (i.v.); assay type: in vivo
Source text: […]. The effect of DZN on heart rate and blood pressure were monitored.
[…]. Exp. Ther., vol. 96, 99-113). The ID50 value is the response of a β drug which produces a response in 50% of […].

[10] = target: T2, β2 adrenergic receptor (Rattus norvegicus, UniProt P10608); assay: Antagonism of isoproterenolol on isolated rat uterus horns; assay type: cell-based
T2 construct: from tissue; host or cells: rat uterus horns (isolated organ, stilbestrol and reserpine pretreated)
Experimental: Female rats were intraperitonealy injected with stilbestrol (1 mg/kg) to elevate the sensitivity of β2 adrenergic receptor in uterus horns. The rats were subsequently administered reserpine to deplete the catecholamine in uterus. The isolated uterus horns were treated with phenoxybenzamine to block the neuronal uptake and the interaction between neuron cells and the adrenergic receptor.

[11] = tested on: isolated portal veins; settings: mice; cited from earlier work
[12] = tested on: blood vessels; settings: mouse and rat; cited from earlier work
[13] = tested on: platelets; settings: cited from earlier work
[14] = tested on: carrageenin-induced paw edema; settings: in vivo; cited from earlier work
[15] = tested on: intraocular pressure; settings: in vivo; cited from earlier work

T2 sequence (P10608 whole entry): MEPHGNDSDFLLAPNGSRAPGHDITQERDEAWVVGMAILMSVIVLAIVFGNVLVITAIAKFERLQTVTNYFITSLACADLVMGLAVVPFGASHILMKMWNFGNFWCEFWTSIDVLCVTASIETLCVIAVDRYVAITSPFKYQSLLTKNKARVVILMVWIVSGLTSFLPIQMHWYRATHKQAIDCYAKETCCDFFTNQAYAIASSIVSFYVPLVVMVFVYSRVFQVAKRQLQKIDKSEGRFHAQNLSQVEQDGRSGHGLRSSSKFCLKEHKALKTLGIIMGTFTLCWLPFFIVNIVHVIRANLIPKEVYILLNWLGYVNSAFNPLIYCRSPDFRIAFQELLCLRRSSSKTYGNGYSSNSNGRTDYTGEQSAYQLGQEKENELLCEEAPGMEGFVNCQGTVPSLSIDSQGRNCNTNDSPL
Sequence of β-receptor (H0W3H1 1-470): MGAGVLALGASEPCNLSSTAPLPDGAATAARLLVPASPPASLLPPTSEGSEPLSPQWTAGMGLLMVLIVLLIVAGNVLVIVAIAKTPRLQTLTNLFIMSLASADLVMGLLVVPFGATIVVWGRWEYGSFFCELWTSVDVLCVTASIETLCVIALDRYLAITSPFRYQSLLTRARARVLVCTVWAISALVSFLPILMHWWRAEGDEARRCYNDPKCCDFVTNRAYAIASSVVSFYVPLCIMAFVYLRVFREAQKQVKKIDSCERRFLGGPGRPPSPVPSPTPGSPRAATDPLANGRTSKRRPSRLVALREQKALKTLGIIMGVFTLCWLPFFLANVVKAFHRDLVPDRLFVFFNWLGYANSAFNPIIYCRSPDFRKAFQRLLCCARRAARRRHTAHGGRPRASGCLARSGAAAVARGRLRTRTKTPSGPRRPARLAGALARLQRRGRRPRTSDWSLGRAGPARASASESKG
T1 sequence (H0W3H1 1-470): as above

COc1cc(C=CC(C)=O)ccc1OCC(O)CNC(C)(C)C (racemic) [DZBN, 4-[4'-(2-hydroxy-3-tert-butylaminopropoxy)-3'-methoxyphenyl]-3-buten-2-one]
pain producing potency [1]: lower than that of DZ and zingerone
pungency ([1]; rat, in vivo): lower pungency
pEC50 [2]: 5.44
IC50 [2]: close to the IC50 values of the well known β-adrenergic agonist Atenolol
water solubility [3]: watersoluble

COc1cc(C=CC(C)=O)ccc1OCC(O)CNC(C)C (racemic) [DZN, 4-[4'-(2-hydroxy-3-isopropylaminopropoxy)-3'-methoxyphenyl]-3-buten-2-one]
LD50 ([4]; ip): > 1000 mg/kg
LD50 ([4]; po): > 1000 mg/kg
inhibition of collagen-induced platelet aggregation [5]: dose-dependent inhibition of platelet aggregation
IC100 ([5]; Platelet, FIG. 18, read-out: concentration completely inhibiting platelet aggregation): 250 µM
Protection ([6]; 1.25 mg/kg i.p., N = 8): 86.06%
Writhes No. (Ave. ± S.E.) ([6]; 1.25 mg/kg i.p., N = 8): 11.17 ± 2.36
ED50 ([6]; Mus musculus, ip, mice, Litchfield and Wilcoxon method, read-out: ED50 (95% C.I.)): 0.11 mg/kg
Potency ratio ([6]; relative to DZ = 1.00): 3.50
Cardioselectivity ratio [7]: 4.26
shift of isoproterenolol concentration-effect curve ([8]; guinea pig right atrium): partially shifted to the right
slope of regression (Schild plot), β1 ([8]; guinea-pig right atrium): 0.96 ± 0.05
Kb ([8]; read-out: pA2, β1 (converted)): 6.92 nM
ED50 ([9]; Rattus norvegicus, iv, anesthetized rats, Litchfield method, read-out: ID50 : heart rate response (95% C.I.)): 0.22 mg/kg
duration of bradycardia ([9]; i.v. 0.1, 0.5, 1.0 mg/kg): over 1 hr
bradycardia ([9]; i.v. 0.1, 0.5, 1.0 mg/kg, FIGS. 3-6): dose-dependent bradycardia
ID50 : heart rate response (95% C.I.) ([9]; i.v., anesthetized rats, Litchfield method, listed as DZH (compound 4)): 0.22 (1.29-0.04) mg/kg
time of slightly reduced blood pressure after injection ([9]; i.v., statistical significance not found): 5 to 10 min
effect on blood pressure induced by isoproterenolol ([9]; rat, in vivo): lowered the blood pressure induced by isoproterenolol
effect on resting heart rate ([9]; rat, in vivo): reduced resting heart rate
pain producing potency [1]: lower than that of DZ and zingerone
pEC50 [2]: 5.89
IC50 [2]: close to the IC50 values of the well known β-adrenergic agonist Atenolol
shift of isoproterenolol concentration-effect curve ([10]; 10^-8 -10^-6 M DZN, rat uterus horns): partially shift to the right
slope of regression (Schild plot), β2 ([10]; rat uterus): 0.99±0.11
Kb ([10]; read-out: pA2, β2 (converted)): 29.5 nM

CCCCC[C@H](O)CC(=O)CCc1ccc(O)c(OC)c1 [Gingerol]
contraction of isolated portal veins [11]: suppresses the contraction of isolated portal veins in mice
eicosanoid-induced contraction of blood vessels [12]: modulates the eicosanoid-induced contraction of mouse and rat blood vessels

CCCCC/C=C/C(=O)CCc1ccc(O)c(OC)c1 [Shogaol]
platelet aggregation [13]: inhibitory activity
carrageenin-induced paw edema [14]: inhibitory activity

COc1cc(C=CC(C)=O)ccc1OCC(O)CNC(C)(C)C (centres unmarked) [Vaninolol]
intraocular pressure (IOP) [15]: lower the intraocular pressure (IOP)
